For 87 molecules, melting point results are on record in a melting point compilation (Tetko et al.; mined from patent text by program, amines drawn as free bases though some values may be those of a salt).

Bounds are passed on as bounds.

As a reminder, the melting point is the temperature of the solid-liquid transition.

`NC(=O)CCN1CCC(CNc2ccc(Cl)cc2C(=O)Nc2ccc(Cl)cn2)CC1` came in with a melting point of 193 to 196 °C.

Consider `CC(C)(C)OC(=O)NCC1CCCc2ccc(C(=O)O)cc21` (configuration not stated), for which the melting point lay within 172 to 176 °C.

`Fc1cc(CBr)ccc1-c1nc2ccccc2o1`: the melting point fell in the range of 170 to 173 °C.

For the molecule `CC1(C)Oc2ccc(CO)cc2[C@@H](N2CCCC2=O)[C@@H]1O` (relative stereo), the melting point lay in the range of 175 to 178 °C.

As to `CCCCN(CCCC)Cc1nnc(-c2ncn3c2CN(C)C(=O)c2c(Cl)cccc2-3)o1`, the melting point fell in the range of 105 to 108 °C.

`CN(C)C=Nc1sc(C#N)c(Cl)c1C#N`: the melting point was found to be 226 °C.

On to `O=C1c2ccccc2S(=O)(=O)N1CSc1nnc(SCCN2CCCCC2)s1`, for which the melting point is 100 to 101 °C.

`Cc1c(OCCCCSCCn2c([N+](=O)[O-])cnc2C)ccnc1CNc1cnc2ccccc2c1` had a melting point of 154 to 158 °C.

For `CN1CCc2c(sc3ncn(CCCl)c(=O)c23)C1`, the melting point lay within 159 to 161 °C.

Molecule `COCCn1cc(C(=O)N2CCC(c3cc(CNC(=O)C(F)(F)F)ccc3F)CC2)c2c(-c3ccncc3)cccc21` gave a melting point of 152 to 155 °C.

`NC(=O)N(O)CCNS(=O)(=O)c1ccc2ccccc2c1` displayed a melting point of 174 °C.

In turn, `C=Cc1c(N)nc(-c2ccc(Cl)nc2)nc1C(=O)OC` yielded a melting point of 194 to 195 °C.

`CCOC(=O)c1ccc(CN2CCC(NC(=O)OC(C)(C)C)CC2)cc1` displayed a melting point of 74 to 76 °C.

For the molecule `c1nnc(N2CCN(Cc3ccc4c(c3)OCO4)CC2)s1`, the melting point was in the range of 111 to 112 °C.

`CCOC(=O)c1nc2cc(C(C(C)C)n3ccnc3)ccc2[nH]c1=O` (configuration not stated) came in with a melting point of 230 °C.

Regarding `Cc1cc(Cl)c2cc(O)ccc2n1`, the melting point is 233 °C.

Consider `CCc1cc2c(c(CC)n1)c(C)c(C)c(=O)n2Cc1ccc(-c2ccccc2-c2nnn(C(c3ccccc3)(c3ccccc3)c3ccccc3)n2)cc1`, for which the melting point lay within 159 to 160 °C.

Consider `Cc1ccc2c(c1)C=Cc1ncccc1C2c1c[nH]c(=O)[nH]c1=S` (configuration not stated), for which the melting point is more than 250 °C.

The molecule `CC(C)NC(=O)Nc1cccc2c1C(=O)C1(O)c3ccc(C(C)C)cc3OC21O` (configuration not stated) yielded a melting point of 81 to 85 °C.

In the case of `COc1ccc2c(c1)CCC1(C)CC(=O)NN=C21` (configuration not stated), the melting point worked out at 215 °C.

In turn, `COC(C)c1ccc(C=C(C)c2ccc3c(c2)C(C)(C)CCC3(C)C)cc1` (configuration not stated) had a melting point of 88 to 89 °C.

The molecule `CC(=O)NC(c1ccc(F)cc1)(c1cc2c3c(c1)c(-c1cccc(Cl)c1)cc(=O)n3CC2)c1nncn1C` (configuration not stated) yielded a melting point of 196 °C.

The molecule `COC(=O)C(F)(F)C1(C(F)(F)C(=O)OC)OCCO1` returned a melting point of 66.5 to 67.5 °C.

`OCc1ccc(-c2cc3c(Nc4ccc(F)c(Cl)c4)ncnc3[nH]2)cc1` showed a melting point of more than 300 °C.

`C[C@H](C(=O)O)c1ccc2cc(OCCCCCCc3ccc(OCc4ccccc4)c(OCc4ccccc4)c3)ccc2c1` gave a melting point of 80 to 82 °C.

`O=CNc1csc(Cl)n1` returned a melting point of 138 °C.

The molecule `Cc1oc(-c2ccccc2)nc1COc1ccc(COc2ncccc2CO)cc1` came in with a melting point of 139 to 140 °C.

Take `CC(C)(C)NC(=O)/C=C/c1ccc(C(=O)c2c(-c3ccc(O)cc3)sc3cc(O)ccc23)cc1`: the melting point lay in the range of 187 to 190 °C.

Regarding `N#Cc1c(N2CCCC2)cc(-c2ccccc2)c2c1C(=O)c1ccccc1-2`, the melting point was 166 to 168 °C.

`CCOC(=O)CN(C)C(=O)CCN(C(=O)c1ccc(Cl)cc1)c1ccc(OC)cc1` displayed a melting point of 104 to 106 °C.

Consider `N#Cc1cnnc2ccccc12`, for which the melting point came out at 140 °C.

Consider `CC(C)(C)OC(=O)NC(CCOP(=O)(Oc1ccccc1)Oc1ccccc1)C(=O)OCc1ccccc1` (racemic), for which the melting point was in the range of 63.5 to 64 °C.

Take `COc1ccc(-c2nc(Sc3ccccc3F)[nH]c2-c2ccc(OC)cc2)cc1`: the melting point came out at 195 °C.

Molecule `CC(=O)c1ccc(OCCC2CCN(c3cc(Cl)nnc3Cl)CC2)cc1` returned a melting point of 99 to 100 °C.

`Cc1cc2c(cc1N1CCCCCC1)OC(=O)C2C` (configuration not stated) displayed a melting point of 58 to 60 °C.

Consider `COc1cc(COc2nn(-c3ccccc3)cc2/C=C/C(C)=O)ccc1OCc1nc(-c2ccco2)oc1C`, for which the melting point lay in the range of 177 to 178 °C.

In turn, `C(=C\c1nc(COc2ccc(CCCn3ccnc3)cn2)co1)/c1ccccc1` registered a melting point of 120 to 121 °C.

Take `CC1(C)CC(CNS(=O)(=O)c2ccc(Cl)cc2)(Cc2ccc(CC(=O)O)cc2)C1`: the melting point lay within 140 to 142 °C.

Molecule `CCOC(=O)C(C#N)=Cc1c(Cl)n(Cc2ccccc2)c2ccccc12` returned a melting point of 130 to 131 °C.

With `CCOC(=O)C(C#N)NC(=O)OCc1ccccc1` (configuration not stated), the melting point lay within 111 to 112 °C.

`Cn1c(Cl)c(Cl)c2cnc(NC(=O)c3ccc([C@](C)(O)CO)cc3)cc21` displayed a melting point of 205 to 208 °C.

On to `COc1ccc(C(=CN2CCNC2=O)c2ccccc2)cc1OC`, for which the melting point was 155 °C.

`CCOc1cc2cc(CO)c(CO)c(-c3ccncc3)c2cc1OCC` registered a melting point of 159 to 161 °C.

In the case of `O=S1(=O)c2cccc3cccc(c23)N1CCCN1CCC(c2c[nH]c3ccccc23)CC1`, the melting point came out at 162 °C.

Regarding `Clc1ccc(-c2nc3cccnc3n2Cc2ncc[nH]2)cc1`, the melting point was 184 to 185 °C.

`COc1ccc2c(-c3ccc(OC(C)=O)cc3)c(-c3ccc(C(F)(F)F)cc3)c(=O)oc2c1`: the melting point lay within 198 to 201 °C.

In turn, `Cc1cc(-c2ccc(C(F)(F)F)cc2)nc(-c2ccnc(-c3cccc(S(N)(=O)=O)c3)c2)c1` registered a melting point of 238 °C.

For the molecule `CC(C)(C)C(=O)Nc1n[nH]c(C(C)(C)C)c1Cl`, the melting point was in the range of 156 to 158 °C.

The molecule `COC(=O)c1ccc(-c2oc3cc(NS(C)(=O)=O)ccc3c(=O)c2OS(C)(=O)=O)cc1` came in with a melting point of 250 °C.

On to `Cc1nc2c(OCc3c(Cl)ccc([N+](=O)[O-])c3Cl)cccn2c1Br`, for which the melting point lay in the range of 217 to 219 °C.

Turning to `O=C(O)c1nc(C2CC2)[nH]c(=O)c1Cl`, the melting point lay in the range of 189 to 190 °C.

Regarding `CCC(C)(C)c1ccc(Oc2ccc(C(=O)c3ccc(Oc4ccc(C(C)(C)CC)cc4C(C)(C)CC)cc3)cc2)c(C(C)(C)CC)c1`, the melting point was 54 to 56 °C.

`CCOC(=O)CCNC(=O)CCCCNC(=O)OC(C)(C)C` showed a melting point of 28 °C.

Turning to `O=C1c2ccccc2C(=O)N1CCCS(=O)(=O)c1ccc(Cl)cc1`, the melting point was determined as 188 °C.

As to `Oc1cc2c3ccc(O)c(O)c3n(Cc3ccc(C(F)(F)F)cc3)c2cc1O`, the melting point fell in the range of 266 to 270 °C.

The molecule `Cc1ccccc1Cn1cccc1C(=O)CC(=O)C(=O)O` came in with a melting point of 176 to 178 °C.

`CC(=O)NC(C)c1ccc(CN2CCN(c3cccc(F)n3)CC2)cc1` (configuration not stated) yielded a melting point of 109 to 111 °C.

In turn, `CCCc1nc2ccccc2c(=O)n1Cc1ccc(-c2ccccc2-c2nc(=O)o[nH]2)cc1` gave a melting point of 251 to 253 °C.

As to `O=C(O)c1c(Br)ccc(OC(F)(F)F)c1F`, the melting point is 112 °C.

Turning to `Nc1ncc(C2OC(CO)C(O)C2O)c(=O)[nH]1` (configuration not stated), the melting point fell in the range of 216 to 217 °C.

On to `CC(=O)OCC1CC(=O)NN=C1c1ccc2c(c1)CCC(=O)N2C` (configuration not stated), for which the melting point is 149 to 153 °C.

With `O=Cc1ccc(-c2ccnc(-c3ccc(OC(F)(F)F)cc3)n2)cc1`, the melting point was in the range of 70 to 73 °C.

The molecule `CC(=O)N(C#N)C/C=C\CN(C#N)C(C)=O` returned a melting point of 73.8 to 75.2 °C.

Molecule `CN(C)C1CCN(c2nc(N3CCOCC3)c3ncnc(NCc4ccccc4)c3n2)CC1` had a melting point of 148 to 150 °C.

In the case of `CCCc1nn(C)c2c(=O)n(CCCOc3ccc(SC(C)(C)C(=O)O)cc3)c(C)nc12`, the melting point fell in the range of 140 to 142 °C.

`O=C(NCCc1ccc(Cl)cc1)C1=C(NCCc2ccc(Cl)cc2)CS(=O)(=O)N(Cc2ccc(Cl)c(Cl)c2)c2ccccc21` returned a melting point of 119 to 121 °C.

The molecule `COc1ccc(C2=NN(Cc3ccc(OCCCCBr)cc3)C(=O)[C@@H]3CC=CC[C@H]23)cc1OC` yielded a melting point of 42 to 46 °C.

In turn, `CC(C)C[C@H](NC(=O)OCc1ccccc1)C(=O)N[C@H]1CCOC1O` (some centres not stated) registered a melting point of 48 to 49 °C.

`CCN(CC)OC(=Nc1c(C(C)C)cccc1C(C)C)Nc1c(C(C)C)cccc1C(C)C`: the melting point lay in the range of 113 to 116 °C.

The molecule `CCCS(=O)(=O)c1ccc(NC(=O)CCCCCCCCCC=C(F)F)cc1` registered a melting point of 67 to 70 °C.

For `Cc1ccc2c(C(C)C(=O)O)cc(=O)[nH]c2c1` (configuration not stated), the melting point fell in the range of 209 to 210 °C.

In turn, `Cc1cc(Oc2c(Cl)cc(C(F)(F)F)cc2Cl)nn1C(=O)NC1CCCC1` had a melting point of 90 to 92 °C.

Regarding `COc1ccc(-c2c3c(cc4ccc5c(c24)OCO5)C(=O)NCC3)cc1`, the melting point lay in the range of 245 to 247 °C.

In turn, `CC(CCC(=O)O)(c1ccc(OCc2ccc3ccccc3n2)cc1)c1ccc(OCc2nc3ccccc3s2)cc1` (configuration not stated) showed a melting point of 68 to 72 °C.

In turn, `CN(C)c1cc(C(=O)O)ncn1` returned a melting point of 250 °C.

Regarding `O=C(O)C(=O)c1ccc(OCCOc2cc3ccccc3cc2O)cc1`, the melting point is 191 to 192 °C.

`O=S(=O)(c1c(-c2ccc(Cl)cc2)[nH]c(Br)c1Br)C(F)(F)C(F)F` yielded a melting point of 138 to 141 °C.

The molecule `CN1CC[C@@H](c2c(O)cc(O)c3c(=O)cc(-c4ccccc4I)oc23)[C@@H]1CO` yielded a melting point of 233 to 235 °C.

Regarding `CC1(C=O)COC2(CCCCCCCCCCC2)OO1` (configuration not stated), the melting point fell in the range of 88 to 89 °C.

`O=C(O)Cc1csc(-c2cccc(O)c2)n1`: the melting point lay within 172 to 174 °C.

In the case of `CCCc1[nH]c2ccc(OCc3ccc4ccccc4n3)cc2c1CC`, the melting point came to 91 °C.

On to `COCCOCOCc1c(OC)ccc2c1Oc1c(ccc(OC)c1CO)N2C`, for which the melting point was in the range of 68 to 70 °C.

`CCc1nc2c([nH]1)c(=O)n(C)c(=O)n2-c1ccc(Cl)cc1Cl`: the melting point fell in the range of 274 to 276 °C.

In turn, `Cc1ccccc1CC1CCN(C(=O)C(=O)Nc2ccc3c(c2)CC(=O)N3)CC1` displayed a melting point of 211 to 213 °C.

In turn, `O=C(O)c1ccc(-c2ccc(-c3ccc(Cl)cc3)s2)cc1` returned a melting point of 285 to 286 °C.

As to `COC(=O)c1c(N)n(C)c2ccccc12`, the melting point is 192 to 196 °C.

The molecule `CNC(=O)c1cccc(C(O)c2ccc(F)cc2)c1` (configuration not stated) had a melting point of 138 to 139 °C.
